Results reported in patent US11254640B2, “N-substituted indoles and other heterocycles for treating brain disorders” (The Regents of the University of California, priority 2019, dated 2022).
Where two headings read alike, the source gives them in different places.

Key:
5HT2A sensor [1] = experiment: 5HT2A sensor assay, agonist mode (sLight1.3s HEK293T stable line); format: cell-based; conditions: for 5HT2A Agonist mean @ 100 nM (%): 100 nM compound; for 5HT2A Agonist mean @ 100 nM (%) / 5HT2A Agonist mean @ 10 μM (%) / 5HT2A Agonist mean @ 100 μM (%): percent relative to 5-HT at 100 uM; for 5HT2A Agonist mean @ 10 μM (%): 10 μM compound; for 5HT2A Agonist mean @ 100 μM (%): 100 μM compound
Procedure: In some embodiments, hallucinogenic potential of a compound of the present invention is determined in vitro. In some embodiments, hallucinogenic potential of a compound of the present invention is determined using a 5HT2A sensor assay. In some embodiments, the 5HT2A sensor assay is in an agonist mode or an antagonist mode. In some embodiments, the 5HT2A sensor assay is in an agonist mode.
(§1) 5HT2A Sensor Assays. HEK293T (ATCC) 5HT2A sensor stable line (sLight1.3s) was generated via lentiviral transduction of HIV-EF1α-sLight1.3 and propagated from a single colony. Lentivirus was produced using 2nd generation lentiviral plasmids pHIV-EF1α-sLight1.3, pHCMV-G, and pCMV-deltaR8.2.
(§2) For the screening of the 41 compounds, sLight1.3s cells were plated in 96-well plates at a density of 40000 24-hours prior to imaging. On the day of imaging, compounds solubilized in DMSO were diluted from the 100 mM stock solution to working concentrations of 1 mM, 100 μM and 1 μM with a DMSO concentration of 1%. Immediately prior to imaging, cells growing in DMEM (Gibco) were washed 2× with HBSS (Gibco) and in agonist mode 180 μL of HBSS or in antagonist mode 160 μL of HBSS was added to each well after the final wash. For agonist mode, images were taken before and after the addition of the 20 μL compound working solution into the wells containing 180 μL HBSS. This produced final compound concentrations of 100 μM, 10 μM and 100 nM with a DMSO concentration of 0.1%. For antagonist mode, images were taken before and after addition of 20 μL of 900 nM 5-HT and again after 20 μL of the compound working solutions to produce final concentrations of 100 nM for 5HT and 100 μM, 10 μM and 100 nM for the compounds with a DMSO concentration of 0.1%. Each compound was tested in triplicates (3 wells) for each concentration (100 μM, 10 μM and 100 nM). Additionally, within each plate, 100 nM 5HT and 0.1% DMSO controls were also imaged.
(§3) Imaging was performed using the Leica DMi8 inverted microscope with a 40× objective using the FITC preset with an excitation of 460 nm and emission of 512-542 nm. For each well, the cellular membrane where the 5HT2A sensor is targeted was autofocused using the adaptive focus controls and 5 images from different regions within the well were taken with each image processed from a 2×2 binning.
(§4) For data processing, the membranes from each image was segmented and analyzed using a custom algorithm written in MATLAB producing a single raw fluorescence intensity value. For each well the 5 raw fluorescence intensity values generated from the 5 images were averaged and the change in fluorescence intensity (dFF) was calculated as: dFF=(Fsat−Fapo)/Fapo
(§5) For both agonist and antagonist modes, the fluorescence intensity values before compound addition in HBSS only were used as the Fapo values while the fluorescence intensity values after compound addition were used as the Fsat values.
(§6) For agonist mode, data are as percent activation relative to 5HT, where 0 is the average of the DMSO wells and 100 is the average of the 100 uM 5HT wells. For antagonist mode, the inactivation score was calculated as: Inactivation score=(dFFF(Compound+5HT)−dFF(5HT))/dFF(5HT)

cortical neurons = experiment: Dendritogenesis assay, Sholl analysis; format: cell-based, rat; conditions: Rattus norvegicus, Cortical neurone; 10 μM; Nmax with vehicle (DMSO) = 0% and ketamine = 100%; read-out: % efficacy in sholls
Description: Dendritogenesis Assays. Phenotypic screening has historically proven more successful than target-based approaches for identifying drugs with novel mechanisms of action. Having established a simple and robust method for accessing isoDMT analogs, tested next was their ability to increase dendritic arbor complexity in cultures of cortical neurons using a phenotypic assay. Following treatment, neurons were fixed and visualized using an antibody against MAP2—a cytoskeletal protein localized to the somatodendritic compartment of neurons. Sholl analysis was then performed, and the maximum number of crossings (Nmax) was used as a quantitative metric of dendritic arbor complexity. For statistical comparisons between specific compounds, the raw Nmax values were compared. Percent efficacies were determined by setting the Nmax values for the vehicle (DMSO) and positive (ketamine) controls equal to 0% and 100%, respectively.
Animals. For the dendritogenesis experiments, timed pregnant Sprague Dawley rats were obtained from Charles River Laboratories (Wilmington, Mass.). For the head-twitch response assay, male and female C57BL/6J mice were obtained from Jackson Laboratory (Sacramento, Calif.). Mice were housed in a temperature and humidity-controlled room maintained on a 12-h light/dark cycle in groups of 4-5 (same sex). Animals weighed between 17 and 30 g at the time of the experiments. All experimental procedures involving rodents were approved by the UC Davis Institutional Animal Care and Use Committee (IACUC) and adhered to principles described in the National Institutes of Health Guide for the Care and Use of Laboratory Animals. The University of California, Davis and the University of California, San Francisco are accredited by the Association for Assessment and Accreditation of Laboratory Animal Care International (AAALAC).
Dendritogenesis—Sholl Analysis. Dendritogenesis experiments were performed following a previously published method with slight modifications. Neurons were plated in 96-well format (200 μL of media per well) at a density of approximately 15,000 cells/well in Neurobasal (Life Technologies) containing 1% penicillin-streptomycin, 10% heat-inactivated fetal bovine serum, and 0.5 mM glutamine. After 24 h, the medium was replaced with Neurobasal containing 1× B27 supplement (Life Technologies), 1% penicillin-streptomycin, 0.5 mM glutamine, and 12.5 μM glutamate. After 3 days in vitro (DIV3), the cells were treated with compounds. All compounds tested in the dendritogenesis assays were treated at 10 μM unless noted otherwise. Stock solutions of the compounds in DMSO were first diluted 100-fold in Neurobasal before an additional 10-fold dilution into each well (total dilution=1:1000; 0.1% DMSO concentration). Treatments were randomized. After 1 h, the media was removed and replaced with new Neurobasal media containing 1× B27 supplement, 1% penicillin-streptomycin, 0.5 mM glutamine, and 12.5 μM glutamate. The cells were allowed to grow for an additional 71 h. At that time, neurons were fixed by removing 80% of the media and replacing it with a volume of 4% aqueous paraformaldehyde (Alfa Aesar) equal to 50% of the working volume of the well. Then, the cells were incubated at room temperature for 20 min before the fixative was aspirated and each well washed twice with DPBS. Cells were permeabilized using 0.2% Triton X-100 (ThermoFisher) in DPBS for 20 minutes at room temperature without shaking. Plates were blocked with antibody diluting buffer (ADB) containing 2% bovine serum albumin (BSA) in DPBS for 1 h at room temperature. Then, plates were incubated overnight at 4° C. with gentle shaking in ADB containing a chicken anti-MAP2 antibody (1:10,000; EnCor, CPCA-MAP2). The next day, plates were washed three times with DPBS and once with 2% ADB in DPBS. […]

rat cortical neurons = experiment: Neurite outgrowth assay; format: cell-based; conditions: Cortical neurone, 1 hour treatment at DIV 4, analysed DIV 7, fold vs DMSO control
Description: Neurite outgrowth assay. Changes in the pattern of neurite outgrowth have been implicated in neurodegenerative disorders as well as traumatic injuries. The discovery of new compounds that can positively affect neuritogenesis are important for developing new therapeutics for neurological diseases. Measurement of neurite outgrowth of rat cortical neurons using an automated image-based assay was used to determine the neuroplastic effects of the compounds of the present invention. In some embodiments, a compound of the present invention increases the pattern of neurite outgrowth. In some embodiments, a compound of the present invention increases neurite average length compared to a control. In some embodiments, a compound of the present invention increases neurite branch points compared to a control. In some embodiments, a compound of the present invention increases neurite average length and neurite branch points compared to a control.
Neurite Outgrowth Assay. Rat cortical neurons (20,000 cells/well) were freshly isolated from embryonic day 18 rats and cultured in Neurobasal Medium (+B27). The cultured cells were plated in 96 well-plates (avoiding external wells). At DIV 4, the neurons were treated with compound or control (10 μM) for 1 hour followed by complete washout of the compound. At DIV 7, the neurons were analyzed. The experiments were performed in triplicate. Neurite outgrowth was measured analyzing the following parameters: Number of Cell Bodies, total neurite length (pixels), Root Count, Segments, Extremities Count and node points. Changes in the pattern of neurite outgrowth of the neurons were analyzed by immunocytochemistry against β-III-tubulin. Pictures were acquired by the CellInsight CX7 from Thermo Fisher and analyzed using its software. Results generated in the equipment were maximum neurite length, extremity count, root count, dendrite branch points, and total neurite length. The results were compared to DMSO control, representing the fold-change in neuronal outgrowth.

5HT2A sensor [2] = experiment: 5HT2A sensor assay, antagonist mode (sLight1.3s HEK293T stable line); format: cell-based; conditions: relative to 5-HT at 100 nM; for 5HT2A Antagonist mean @ 100 nM (%): 100 nM compound; for 5HT2A Antagonist mean @ 10 μM (%): 10 μM compound; for 5HT2A Antagonist mean @ 100 μM (%): 100 μM compound
Procedure: In some embodiments, the 5HT2A sensor assay is in an antagonist mode.
as §1, §2, §3, §4, §5, §6

5HT2A = target: T1, 5HT2A (Homo sapiens, UniProt P28223); experiment: Calcium flux assay (Calcium secondary messenger pathway); format: cell-based; conditions: agonist mode
T1 construct: expressed in transfected cells
T1 sequence (P28223 whole entry): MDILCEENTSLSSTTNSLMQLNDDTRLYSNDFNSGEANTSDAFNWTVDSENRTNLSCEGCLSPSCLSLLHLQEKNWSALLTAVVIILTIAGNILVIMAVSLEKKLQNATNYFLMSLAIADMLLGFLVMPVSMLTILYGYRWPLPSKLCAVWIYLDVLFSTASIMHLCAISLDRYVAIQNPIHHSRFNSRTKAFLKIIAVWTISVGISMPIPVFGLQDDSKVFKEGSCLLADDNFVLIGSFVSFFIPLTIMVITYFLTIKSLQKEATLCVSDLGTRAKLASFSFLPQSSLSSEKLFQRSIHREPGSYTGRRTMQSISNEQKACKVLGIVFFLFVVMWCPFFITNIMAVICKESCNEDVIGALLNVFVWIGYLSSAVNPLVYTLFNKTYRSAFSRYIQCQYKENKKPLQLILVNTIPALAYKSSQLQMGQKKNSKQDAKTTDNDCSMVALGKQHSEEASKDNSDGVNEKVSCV
Description: Calcium Flux Assay. Calcium Secondary Messenger Pathway. The Calcium No Wash^PLUS assay monitors the activation of a GPCR (e.g., 5HT2A) via Gq secondary messenger signaling in a live cell, non-imaging assay format. Calcium mobilization in PathHunter® cell lines or other cell lines stably expressing Gq-coupled GPCRs (e.g., 5HT2A) is monitored using a calcium-sensitive dye that is loaded into cells. GPCR (e.g., 5HT2A) activation by a compound results in the release of calcium from intracellular stores and an increase in dye fluorescence that is measured in real-time. In some embodiments, the ability of a compound of the present invention to modulate 5-HT2A function is determined using a calcium flux assay. In some embodiments, a compound of the present invention activates a calcium flux assay.
Calcium Secondary Messenger Pathway. Cell lines were expanded from freezer stocks according to standard procedures. Cells were seeded in a total volume of 20 μL into black-walled, clear-bottom, Poly-D-lysine coated 384-well microplates and incubated at 37° C. for the appropriate time prior to testing. Assays were performed in 1× Dye Loading Buffer consisting of 1× Dye, 1× Additive A and 2.5 mM Probenecid in HBSS/20 mM Hepes. Probenicid was prepared fresh. Cells were loaded with dye prior to testing. Media was aspirated from cells and replaced with 20 μL Dye Loading Buffer. Cells were incubated for 30-60 minutes at 37° C.
For agonist determination, cells were incubated with sample to induce response. After dye loading, cells were removed from the incubator and 10 μL HBSS/20 mM Hepes was added. 3× vehicle was included in the buffer when performing agonist dose curves to define the EC80 for subsequent antagonist assays. Cells were incubated for 30 minutes at room temperature in the dark to equilibrate plate temperature. Intermediate dilution of sample stocks was performed to generate 4× sample in assay buffer. Compound agonist activity was measured on a FLIPR Tetra (MDS). Calcium mobilization was monitored for 2 minutes and 10 μL 4× sample in HBSS/20 mM Hepes was added to the cells 5 seconds into the assay.
Compound activity was analyzed using CBIS data analysis suite (ChemInnovation, CA). For agonist mode assays, percentage activity is calculated using the following formula: % Activity=100%×(mean RFU of test sample−mean RFU of vehicle control)/(mean MAX RFU control ligand−mean RFU of vehicle control).

[3] = read-out: Neurite Average Length @ 10 μM
[4] = read-out: Neurite Branch Points: @ 10 μM

SMILES	activation of 5HT2A sensor assay in agonist mode at 10 μM (5HT2A sensor [1]; 10 μM of compound (FIG. 11))	Emax at 10 µM (cortical neurons)	fold induction at 10 µM (rat cortical neurons; [3])	fold induction at 10 µM (rat cortical neurons; [4])	5HT2A Agonist mean @ 100 nM (%) (5HT2A sensor [1])	5HT2A Agonist mean @ 10 μM (%) (5HT2A sensor [1])	5HT2A Agonist mean @ 100 μM (%) (5HT2A sensor [1])	5HT2A Antagonist mean @ 100 nM (%) (5HT2A sensor [2])	5HT2A Antagonist mean @ 10 μM (%) (5HT2A sensor [2])	5HT2A Antagonist mean @ 100 μM (%) (5HT2A sensor [2])	EC50 (5HT2A)
CN(C)CCc1c[nH]c2ccccc12 [Example 1, N,N-dimethyltryptamine, reference compound]	activate the 5HT2A sensor assay in agonist mode	79%	–	–	–	–	–	–	–	–	–
COc1ccc2c(ccn2CCN2CCCC2)c1 [Example 44, 5-methoxy-1-(2-(pyrrolidin-1-yl)ethyl)-1H-indole]	–	–	1.5 to 3	> 3	B (does not activate 5HT2A sensor assay in agonist mode)	B (does not activate 5HT2A sensor assay in agonist mode)	B (does not activate 5HT2A sensor assay in agonist mode)	C (inhibits 5HT response by <75%)	A (inhibits 5HT response by >100%)	A (inhibits 5HT response by >100%)	> 10 µM
COc1ccc2c(ccn2CCN2CCCCC2)c1 [Example 45, 5-methoxy-1-(2-(piperidin-1-yl)ethyl)-1H-indole]	–	–	1.5 to 3	1.5 to 3	B (does not activate 5HT2A sensor assay in agonist mode)	B (does not activate 5HT2A sensor assay in agonist mode)	B (does not activate 5HT2A sensor assay in agonist mode)	A (inhibits 5HT response by >100%)	B (inhibits 5HT response by 75% to 100%)	A (inhibits 5HT response by >100%)	> 10 µM
